Data reported in patent US20110008279A1, “Methods and Compositions Relating to Adhesins as Adjuvants” (priority 2005, published 2011).

What was measured:
[1] = system: human monocytes; assay: Surface markers of human monocytes; assay type: cell-based
Excerpt: The functional effect of NadA on human monocytes and macrophages was investigated using a soluble recombinant mutant lacking the membrane anchor and a full length protein expressed in E. coli OMV or N meningitidis OMV. To better define the immuno-modulatory activity of NadA, the cells were stimulated with protein plus or minus both microbial stimulus (LPS) and immunological stimulus (IFNγ).
The effect of NadAΔ351-405 on monocyte and macrophage cells was further investigated by measuring the expression of the antigen presentation marker MHC-II, the co-stimulatory molecules CD80 and CD86 and the cell adhesion molecule ICAM-1.

[2] = system: Chang cells; assay: NadA binding to Chang cells (heparin, competition with non-labelled NadA); design: species or system human; conditions: NadA 600 nM, fluorescence microscopy
Procedure: Chang and CHO-K1 cells were incubated for 3 h at 37° C. with Alexa^488-labeled NadAΔ351-405 (250 nM) in the presence or the absence of non-labelled NadAΔ351-405 (0, 1, 2.5 or 5 μM), washed and analyzed by FACS; results shown are the relative MFI values ±SE, n=3.
Chang cells were incubated at 37° C. for 3 h with NadA 600 nM and re-incubated 10 min at 37° C. with heparin.

Q: Which results are given for NadAΔ351-405?
A: CD80 expression ([1]; co-stimulation with IFN-γ): increased; CD86 or HLA-DR expression ([1]; with LPS or IFN-γ): No NadA immunomodulatory effect; protein binding to Chang cells in the presence of heparin [2]: dose-dependent reduction
